One data set concerns the target hERG channel (Homo sapiens, UniProt Q12809). Put plainly: hERG currents in Xenopus oocytes, TEVC. (In general: The hERG channel carries a current that helps repolarise heart muscle cells.)
Another data set addresses T1, NaV1.2 and NaVβ1 (Rattus norvegicus, UniProt P04775).
T1 construct: expressed in transfected cells; host or cells: Xenopus oocytes
Put plainly: NaV1.2 currents in Xenopus oocytes. It counts as cell-based.

Data set [1] in a line: Rat PK, IV/PO cross over and brain penetration. In kind it is in vivo.
Data set [2] relates to Kir2.1, Kir2.3, Kir3.1∗, Kir3.2∗, Kir3.4∗, Kir3.1∗/Kir3.2 and Kir3.1∗/Kir3.4. Put plainly: TEVC in Xenopus oocytes, selectivity over other Kir channels. In kind it is cell-based. The settings on record: 1 μM.
Data set [3] is described as follows: Plasma protein binding, rat. In kind it is in vitro ADME. The settings on record: read-out: Rat Plasma Protein Binding (PPB) (converted).
Another data set addresses T2, Kir2.1 (Homo sapiens, UniProt P63252).
T2 construct: host or cells: HEK293
Put plainly: Cloned cardiac ion channel manual patch clamp, Kir2.1. It counts as cell-based. The settings on record: MPC (manual patch clamp).

The test system of a further data set is Nav. The experiment in a line: Radioligand binding, rat cerebral cortex.

Entries after “also recorded” stand apart in the source; their conditions may differ. Where two headings read alike, the source gives them in different places.

Chain of hERG channel (Q12809 whole entry): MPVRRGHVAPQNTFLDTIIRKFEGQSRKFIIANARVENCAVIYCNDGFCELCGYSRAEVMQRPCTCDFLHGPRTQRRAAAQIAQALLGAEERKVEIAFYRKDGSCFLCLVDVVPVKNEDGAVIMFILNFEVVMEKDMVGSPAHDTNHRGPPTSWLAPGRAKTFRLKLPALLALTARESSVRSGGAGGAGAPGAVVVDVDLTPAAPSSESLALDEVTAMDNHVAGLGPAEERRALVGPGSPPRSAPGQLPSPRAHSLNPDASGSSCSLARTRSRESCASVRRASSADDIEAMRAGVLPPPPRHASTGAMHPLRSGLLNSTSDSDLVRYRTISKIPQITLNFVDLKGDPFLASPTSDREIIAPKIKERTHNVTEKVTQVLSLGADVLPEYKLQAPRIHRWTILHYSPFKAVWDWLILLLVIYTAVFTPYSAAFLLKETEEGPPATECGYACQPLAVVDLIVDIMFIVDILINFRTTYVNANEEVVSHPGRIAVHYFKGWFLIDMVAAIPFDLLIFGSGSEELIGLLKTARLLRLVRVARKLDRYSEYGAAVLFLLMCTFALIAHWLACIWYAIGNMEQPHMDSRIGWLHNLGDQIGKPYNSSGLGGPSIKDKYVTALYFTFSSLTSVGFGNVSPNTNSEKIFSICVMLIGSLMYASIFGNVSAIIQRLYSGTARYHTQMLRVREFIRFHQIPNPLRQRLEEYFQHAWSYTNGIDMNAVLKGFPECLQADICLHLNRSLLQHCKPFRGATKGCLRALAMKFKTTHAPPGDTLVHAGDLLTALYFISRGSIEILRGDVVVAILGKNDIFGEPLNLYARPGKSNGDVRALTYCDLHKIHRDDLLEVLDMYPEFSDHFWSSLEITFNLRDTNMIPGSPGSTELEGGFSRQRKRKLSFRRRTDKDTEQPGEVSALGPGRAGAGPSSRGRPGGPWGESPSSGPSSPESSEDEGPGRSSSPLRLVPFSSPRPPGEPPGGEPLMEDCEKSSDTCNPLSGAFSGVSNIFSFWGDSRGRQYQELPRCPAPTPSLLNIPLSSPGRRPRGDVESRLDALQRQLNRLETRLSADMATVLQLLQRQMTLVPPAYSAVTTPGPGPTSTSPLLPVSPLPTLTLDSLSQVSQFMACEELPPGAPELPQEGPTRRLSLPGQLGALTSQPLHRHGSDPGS
T1 sequence (P04775 whole entry): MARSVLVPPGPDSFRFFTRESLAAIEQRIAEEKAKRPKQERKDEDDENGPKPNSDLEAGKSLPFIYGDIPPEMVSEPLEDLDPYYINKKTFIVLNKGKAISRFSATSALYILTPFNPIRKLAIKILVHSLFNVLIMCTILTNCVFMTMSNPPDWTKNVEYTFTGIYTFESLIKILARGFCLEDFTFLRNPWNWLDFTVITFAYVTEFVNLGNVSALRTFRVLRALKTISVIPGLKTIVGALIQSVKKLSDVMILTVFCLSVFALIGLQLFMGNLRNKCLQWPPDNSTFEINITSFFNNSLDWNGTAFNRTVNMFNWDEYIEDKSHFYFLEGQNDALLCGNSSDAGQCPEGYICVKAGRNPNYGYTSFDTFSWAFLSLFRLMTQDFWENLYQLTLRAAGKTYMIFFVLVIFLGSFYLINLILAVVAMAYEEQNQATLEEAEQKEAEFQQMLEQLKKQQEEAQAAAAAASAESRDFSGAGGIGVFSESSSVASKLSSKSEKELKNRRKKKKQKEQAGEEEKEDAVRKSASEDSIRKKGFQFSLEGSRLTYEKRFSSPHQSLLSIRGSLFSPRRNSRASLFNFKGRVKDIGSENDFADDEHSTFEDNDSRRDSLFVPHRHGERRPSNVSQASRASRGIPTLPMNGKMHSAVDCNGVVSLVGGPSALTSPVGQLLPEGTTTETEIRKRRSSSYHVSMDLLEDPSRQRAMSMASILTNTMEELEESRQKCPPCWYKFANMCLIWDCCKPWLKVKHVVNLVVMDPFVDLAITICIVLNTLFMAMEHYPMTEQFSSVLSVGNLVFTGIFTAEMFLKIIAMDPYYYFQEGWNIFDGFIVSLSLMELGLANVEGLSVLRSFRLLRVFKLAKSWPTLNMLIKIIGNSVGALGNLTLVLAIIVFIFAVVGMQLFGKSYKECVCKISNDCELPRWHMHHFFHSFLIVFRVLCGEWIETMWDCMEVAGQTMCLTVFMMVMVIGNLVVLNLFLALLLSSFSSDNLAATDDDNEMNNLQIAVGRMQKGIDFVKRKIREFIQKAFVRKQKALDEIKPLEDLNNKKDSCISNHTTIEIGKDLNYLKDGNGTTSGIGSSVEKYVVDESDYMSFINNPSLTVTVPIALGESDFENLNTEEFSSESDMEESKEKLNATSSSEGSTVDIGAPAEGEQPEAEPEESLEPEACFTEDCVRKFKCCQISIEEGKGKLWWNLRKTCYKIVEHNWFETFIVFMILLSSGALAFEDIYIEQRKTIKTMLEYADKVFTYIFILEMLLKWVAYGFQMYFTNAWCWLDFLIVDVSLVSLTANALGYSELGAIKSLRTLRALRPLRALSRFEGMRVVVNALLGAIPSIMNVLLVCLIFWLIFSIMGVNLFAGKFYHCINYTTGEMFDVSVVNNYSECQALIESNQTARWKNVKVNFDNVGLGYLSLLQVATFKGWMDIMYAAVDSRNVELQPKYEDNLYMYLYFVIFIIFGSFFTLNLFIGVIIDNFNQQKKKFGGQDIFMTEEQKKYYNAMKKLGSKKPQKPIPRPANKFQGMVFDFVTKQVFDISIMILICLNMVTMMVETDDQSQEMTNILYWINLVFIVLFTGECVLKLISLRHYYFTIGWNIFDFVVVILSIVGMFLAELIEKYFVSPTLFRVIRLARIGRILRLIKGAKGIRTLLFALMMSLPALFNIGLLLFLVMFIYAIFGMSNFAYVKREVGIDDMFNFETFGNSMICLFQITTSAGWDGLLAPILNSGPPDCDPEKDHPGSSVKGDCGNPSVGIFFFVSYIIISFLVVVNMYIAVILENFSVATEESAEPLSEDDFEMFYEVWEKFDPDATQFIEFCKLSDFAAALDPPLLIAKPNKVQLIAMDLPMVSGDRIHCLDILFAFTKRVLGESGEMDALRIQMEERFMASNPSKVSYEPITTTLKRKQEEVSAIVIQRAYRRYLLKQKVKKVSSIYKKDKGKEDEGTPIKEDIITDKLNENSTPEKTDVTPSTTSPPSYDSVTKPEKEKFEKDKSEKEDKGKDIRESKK
T1 sequence (Q00954 19-218 partner): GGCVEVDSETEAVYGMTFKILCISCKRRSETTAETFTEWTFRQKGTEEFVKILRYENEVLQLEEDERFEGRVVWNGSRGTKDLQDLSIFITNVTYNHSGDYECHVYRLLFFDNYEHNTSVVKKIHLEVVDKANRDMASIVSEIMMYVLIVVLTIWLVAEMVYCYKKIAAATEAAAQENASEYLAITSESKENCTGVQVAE
T2 sequence (P63252 whole entry): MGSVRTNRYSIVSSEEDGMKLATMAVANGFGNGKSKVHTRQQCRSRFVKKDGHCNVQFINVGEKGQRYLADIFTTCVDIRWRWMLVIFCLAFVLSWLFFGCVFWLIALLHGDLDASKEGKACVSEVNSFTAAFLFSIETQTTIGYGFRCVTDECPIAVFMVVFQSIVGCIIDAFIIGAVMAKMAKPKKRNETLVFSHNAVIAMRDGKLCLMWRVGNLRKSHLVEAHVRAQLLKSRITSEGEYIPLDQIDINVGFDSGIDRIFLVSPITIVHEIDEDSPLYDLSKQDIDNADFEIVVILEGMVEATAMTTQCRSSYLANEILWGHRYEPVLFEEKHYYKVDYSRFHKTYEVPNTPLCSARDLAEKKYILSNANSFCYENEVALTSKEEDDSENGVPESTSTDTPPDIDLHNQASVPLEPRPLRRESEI

As to `Cc1cc(CO)nc2cc3c(cc12)OC(C)(C)[C@H](O)[C@H]3NCCc1ccccc1` [BP-G1, (3R,4S)-7-(hydroxymethyl)-2,2,9-trimethyl-4-(2-phenylethylamino)-3,4-dihydropyrano[2,3-g]quinolin-3-ol], the concentration for half-maximal inhibition (IC50) (in general, the concentration that gives 50% inhibition) on hERG channel is greater than 5 µM; on Kir2.1, greater than 10 µM. Besides, on hERG channel (up to 5 μM, Xenopus oocytes), the “inhibitory activity on hERG current” value is “did not show inhibitory activity; also recorded: not inhibited”. Besides, the “block of TTX-sensitive NaV1.2 currents” value on NaV1.2 and NaVβ1 (10 µM) is given as “did not block”. For the same compound, on NaV1.2 and NaVβ1 (10 μM BP-G1, vehicle -2.16 ± 0.36 μA, mean ± SD, N=10), the “average NaV1.2 current” value was -2.17 μA. On NaV1.2 and NaVβ1 (Table S1), the “IC50, NaV1.2” value is greater than 10 µM. The same compound had a Co in data set [1] (1mg/kg iv.) of 3941 ng/mL. Also, the CL in data set [1] (5mg/kg po.) was determined as 0.198 L/h/kg. The Kp in data set [1] (rat, brain and plasma, 5mg/kg po., read-out: CNS Penetration (B:P)) turned out to be 0.2. The compound also had a Vd in data set [1] (rat, in vivo, 1mg/kg iv.) of 1 L/kg. In data set [1] (rat, in vivo, 1mg/kg iv.), this compound gave a clearance of 0.203 L/h/kg. In addition, the bioavailability (as a rule, the share of a dose that reaches the circulation, judged against a reference dose that is usually intravenous) in data set [1] (rat, in vivo, 1mg/kg iv. / 5mg/kg po., read-out: Oral bioavailability F%) worked out at 32%. The AUC(0-inf) in data set [1] (rat, in vivo, 1mg/kg iv., read-out: Rat iv. AUC∞) was found to be 4.95 µg·h/mL; in data set [1] (rat, in vivo, 5mg/kg po., read-out: Rat p.o. AUC∞) it was 16.8 µg·h/mL. The highest level in data set [1] (rat, in vivo, 5mg/kg po.) (Cmax) was 1.19 µg/mL. Also, in data set [1] (rat, in vivo, 5mg/kg po., read-out: Rat p.o. AUCt), the AUC(0-t) is 6.42 µg·h/mL. The half-life (usually the time in which the quantity being followed falls by half) in data set [1] (rat, in vivo, listed under 5mg/kg po.) was 12.2 h. Besides, the “selectivity for Kir3.1-containing heteromers over other Kir channels” value in data set [2] was “strong inhibitory selectivity”. Further, the fraction unbound in data set [3] is 0.11. Besides, the “% Specific Binding at 10 µM” value with Nav is on record as 65.1%; in the data set on Nav (listed as Benzopyran-G1), 65.100%.
